Where “and” joins values, the source holds several entries; their conditions need not be identical. Identical values can stand only once.
Tests used:
S2 cells [1] = assay: Reduced representation paired-end sequencing assay for genome rearrangements in bleomycin-treated cells; assay type: cell-based, Drosophila melanogaster; conditions: bleomycin-treated S2 cells as compared to untreated cells
Experimental: Genomic DNA from cultured mouse (embryonic fibroblasts; MEFs) and fly (Drosophila melanogaster embryo cell line; S2) cells was analyzed by paired-end (“PE”) sequencing after a restriction enzyme digestion (HindIII for mouse and PstI for fly) and size selection. The fly and mouse genomes are structured very differently, with the mouse genome consisting of close to 50% repetitive DNA and the fly genome only 3%. The libraries were sequenced using a paired-end kit on the Illumina® Genome Analyzer fix with a read length of 85 bp. […] Alterations in the distance between two PE reads relative to the distance predicted by the RefSeq indicate putative genome rearrangements. […] First, any read pairs that had mapping quality scores lower than 30 (e.g. see Li H, Ruan J, Durbin R. (2008) Mapping short DNA sequencing reads and calling variants using mapping quality scores. Genome Research 18:1851-1858, hereby incorporated by reference in its entirety, for mapping scores) were filtered out. This removed repeat-spanning reads with ambiguous placement on the reference genome. […]
It was reasoned that treatment of S2 cells with a clastogen should give rise to elevated frequencies of genome rearrangements. […] The frequencies of genome rearrangements were expressed per read pair. […]

S2 cells [2] = assay: Cell survival after ENU treatment; assay type: cell-based, Drosophila melanogaster; conditions: 72-h post-treatment, 4.2 mM ENU
Experimental: To assess somatic mutation spectra in single cells in a genome-wide manner S2 cells derived from Drosophila melanogaster, an organism with a genome size of 160 MB, were used. The strategy followed is outlined in FIG. 1B. Individual single cells were picked from an S2 cell culture 72-h after treatment with 4.2 mM of the powerful point mutagen N-ethyl-N-nitrosourea (ENU) or mock treated with solvent (control). At 72-h post-treatment virtually no lesions remain (6,7) and cell survival is greater than 90% (8) (results not shown). Each single cell was lysed and subjected to whole genome amplification (WGA) using an optimized multiple displacement amplification (MDA) protocol (see Methods and Materials)(9). The amplified cells were first screened for locus dropout by qPCR using primer pairs distributed over the different chromosomes (FIG. 5). […] To identify all possible mutations, either spontaneously formed in the unexposed, control cells or induced by ENU in the treated cells, the libraries were sequenced from both ends, generating between 50-100 million 108-bp paired-end reads per cell. […] Briefly, aligned sequence data from the unamplified sample and a single cell was compared and all differences with the reference sequence were recorded as variants. […]

[3] = tested on: mouse embryonic fibroblast (MEF); assay: Single cell reduced representation (MseI) sequencing for somatic point mutations after ENU treatment; assay type: cell-based
Experimental: Therefore, the procedure shown in FIG. 1B was slightly modified, using a reduced representation approach based on restriction enzyme digestion. For this purpose mouse embryonic fibroblast (MEF) populations were used either treated with 4.2 mM ENU or mock-treated with solvent only. Instead of preparing sequencing libraries directly using randomly fragmented DNA, whole genome amplified DNA was digested from two treated and two control MEFs, as well as unamplified genomic DNA from the MEF population, with MseI, a four-base cutter with a TTAA cleavage site. Following digestion an agarose gel size-selection was performed for fragments between 250-bp and 350-bp, corresponding to a target region of approximately 300 MB. The fragments were sequenced using 121-bp single-end reads. […] Due to the nature of the reduced representation library, the strand bias filter could not be used and therefore a more stringent mutant read frequency cutoff (>40%) was adopted. Out of the 300-MB target region, 220 MB (73%) had sufficient coverage (10×) in the unamplified control sample and 85-93 MB (39-42%) of the 220 MB overlapped with regions of sufficient coverage in the single MEFs. Due to the absence of a sufficient number of heterozygous SNPs in the MEF cell line, allele dropout was estimated using the distribution of mutant read frequencies found in the ENU-treated MEF cells.
Single cells were collected under an inverted microscope by hand-held capillaries, deposited in PCR tubes along with 2 μl of culture medium, and immediately frozen on dry ice. Cells were lysed and amplified using the REPLI-g UltraFast Mini kit (Qiagen, Santa Clara, Calif.) according to the manufacturer's instructions, but using an initial 30-min amplification at 30° C. followed by an 18-hour amplification at 35° C. The reaction products were purified using AMPure XP magnetic beads (Agencourt, Beverly, Mass.) and the reaction yield was measured using the NanoDrop 1000 spectrophotometer (Nanodrop Technologies LLC, Wilmington, Del.). Reactions with yield of greater than 1 μg were tested for locus dropout at eight loci using comparative Ct measurements from real-time PCR (StepOne Plus, Applied Biosystems, Foster City, Calif.) performed with Fast SYBR® Green Master Mix (Foster City, Calif.). Up to 5 μg of DNA from samples displaying the least biased amplification was used as input for Illumina libraries. DNA was either randomly fragmented (S2 cells) or digested (MEFs) with 50 U of Msei (NEB, Ipswich, Mass.). Digested DNA (MEFs) was end-repaired using Mung Bean Nuclease (NEB, Ipswich, Mass.) and then used as input for the Illumina library preparation. S2 libraries were size-selected to 475-525-bp and MEF libraries were size selected to 250-350-bp using agarose gel electrophoresis. […] The aligned sequence data was processed using genome analysis toolkit (GATK) (e.g., available at www.broadinstitute.org) to realign reads containing indels or a high entropy of mismatches, recalibrate the base quality scores, and to compute coverage data and statistics. Somatic point mutations and germline variation were scored using a pipeline composed of SAMtools mpileup command (e.g., available at samtools.sourceforge.net/mpileup.shtml), VarScan somatic command (e.g., available at varscan.sourceforge.net/somatic-calling.html) and a custom script to parse and filter the VarScan output. Somatic events found in multiple single cells were discarded, as were events found in at least one read in the unamplified control sample. […]

S2 cells [4] = assay: Single cell whole genome sequencing for somatic point mutations after ENU treatment; assay type: cell-based, Drosophila melanogaster
Experimental: To assess somatic mutation spectra in single cells in a genome-wide manner S2 cells derived from Drosophila melanogaster, an organism with a genome size of 160 MB, were used. The strategy followed is outlined in FIG. 1B. Individual single cells were picked from an S2 cell culture 72-h after treatment with 4.2 mM of the powerful point mutagen N-ethyl-N-nitrosourea (ENU) or mock treated with solvent (control). At 72-h post-treatment virtually no lesions remain (6,7) and cell survival is greater than 90% (8) (results not shown). Each single cell was lysed and subjected to whole genome amplification (WGA) using an optimized multiple displacement amplification (MDA) protocol (see Methods and Materials)(9). The amplified cells were first screened for locus dropout by qPCR using primer pairs distributed over the different chromosomes (FIG. 5). DNA from the cells displaying the least amount of dropout was fragmented and processed to generate sequencing libraries for the Illumina HiSeq platform. In this way libraries of three untreated and three ENU-treated cells were prepared. For comparison, a similar library was made from unamplified total genomic DNA from the untreated S2 cell population. To identify all possible mutations, either spontaneously formed in the unexposed, control cells or induced by ENU in the treated cells, the libraries were sequenced from both ends, generating between 50-100 million 108-bp paired-end reads per cell. Alignment to the Drosophila reference sequence (dm3) was performed using BWA (10), and post-processing was completed using the Genome Analysis Toolkit (GATK) (11). […] Since ENU is a point mutagen the subsequent analysis was based on this type of mutations only. The pipeline developed for somatic point mutation discovery is described in further detail in the Methods and Materials section. Briefly, aligned sequence data from the unamplified sample and a single cell was compared and all differences with the reference sequence were recorded as variants. Variants with sufficient coverage (20×) in both the unamplified and the single cell sample were classified as “germline” or “somatic” based on whether the variant was shared between the two samples. Somatic variants were further processed using a strand-bias filter and were visually validated using the Integrative Genomics Viewer (IGV) (12).
Single cells were collected under an inverted microscope by hand-held capillaries, deposited in PCR tubes along with 2 μl of culture medium, and immediately frozen on dry ice. […] The reaction products were purified using AMPure XP magnetic beads (Agencourt, Beverly, Mass.) and the reaction yield was measured using the NanoDrop 1000 spectrophotometer (Nanodrop Technologies LLC, Wilmington, Del.). […]

[5] = single MEF, treated with 4.2 mM ENU
[6] = single S2 cell, 72-h after treatment with 4.2 mM ENU

Row | Molecule | increase in genomic mutation frequency (genome rearrangements per read pair) (S2 cells [1]) | cell survival (S2 cells [2]) | induction of point mutations ([3]; ENU-treated MEF cells vs control MEFs) [fold] | majority of the ENU-induced mutations (mutation spectrum) ([3]; MEF cells) | ENU-induced mutation frequency in MEF cells, higher than that found in the S2 cells ([3]; mutations per MB, MEF vs S2) [%] | Mutations per Mb [3, 5] | Point mutations [3, 5] | majority of the ENU-induced mutations (mutation spectrum) (S2 cells [4]; S2 cells) | induction of point mutations (S2 cells [4]; on average in the exposed S2 cells vs control cells) [fold] | Mutations per Mb (S2 cells [4]; [6]) | Point mutations (S2 cells [4]; [6])
1 | bleomycin | approximately 3 fold |  |  |  |  |  |  |  |  |  | 
2 | CCN(N=O)C(N)=O [ENU, N-ethyl-N-nitrosourea] |  | greater than 90% | 35 | T->A, T->C and G->A mutations | 30 | 3.97 and 3.91 | 426 and 446 | T->A, T->C and G->A mutations | 7.5 | 3.27 and 2.54 and 3.18 | 938 and 482 and 690

From patent publication US20140322708A1, “METHOD FOR MEASURING SOMATIC DNA […]” (Albert Einstein College of Medicine of Yeshiva University, priority 2011, published 2014)
